≈ marks a conversion by molar mass, not a printed value. Like-named read-outs stand apart in the source and are kept apart here.
How the values were obtained:
M.tb strain H37Rv [1] = test: MABA: inhibition of growth of M.tb H37Rv under aerobic (replicating) conditions; format: cell-based; conditions: for MIC90 / MIC: Mycobacterium tuberculosis
in vitro = conditions: human, human liver microsomes
[2] = human, microsomes
CYP 3A4 = CYP 3A4 (Homo sapiens, UniProt P08684); test: Inhibition of CYP 3A4; format: in vitro ADME; conditions: 20 min exposure
CYP 3A4, sequence (P08684 whole entry, species assumed): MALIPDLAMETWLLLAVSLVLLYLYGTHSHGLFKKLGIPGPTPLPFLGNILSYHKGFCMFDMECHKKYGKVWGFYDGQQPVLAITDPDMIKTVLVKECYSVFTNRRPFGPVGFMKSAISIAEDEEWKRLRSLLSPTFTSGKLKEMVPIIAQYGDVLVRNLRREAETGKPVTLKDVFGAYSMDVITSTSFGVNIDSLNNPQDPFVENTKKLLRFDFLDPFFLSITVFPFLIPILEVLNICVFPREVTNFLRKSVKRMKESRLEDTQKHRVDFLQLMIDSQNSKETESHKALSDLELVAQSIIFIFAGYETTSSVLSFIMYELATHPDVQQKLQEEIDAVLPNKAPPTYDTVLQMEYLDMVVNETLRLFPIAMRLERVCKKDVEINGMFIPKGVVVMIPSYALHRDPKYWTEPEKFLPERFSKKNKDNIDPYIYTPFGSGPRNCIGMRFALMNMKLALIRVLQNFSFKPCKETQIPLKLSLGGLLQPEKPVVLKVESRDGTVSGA

[3] = rat, in vivo
M.tb strain H37Rv [4] = test: LORA: inhibition of growth of M.tb H37Rv under non-replicating conditions; format: cell-based; conditions: Mycobacterium tuberculosis
Procedure: The compounds were evaluated for their inhibition of growth (measured as MIC90 values in µg/mL) against M.tb (strain H37Rv) under both replicating (MABA)[16] or non-replicating (LORA)[17] conditions. […] In a search for less lipophilic analogues, we prepared and evaluated compounds where this phenyl B-ring unit was replaced with different heterocycles of varying lipophilicity (Table 1).

[5] = Oral bioavailability in rats; conditions: BioDuro LLC

Compound | MIC90 (M.tb strain H37Rv [1]; H37RV) | half-life (in vitro) | Clint [2] | IC50 (CYP 3A4) | F(%) oral bioavailability [3] | MIC90 (M.tb strain H37Rv [4]) | anti-M.tb activity (in words) (M.tb strain H37Rv [1]; M.tb H37Rv, comparison with 1) | MIC (M.tb strain H37Rv [1]; H37RV, read-out: MIC90 MABA) | oral bioavailability (in words) [3] | MIC (M.tb strain H37Rv [1]; M.tb H37Rv, replicating, read-out: MIC (MABA)) | MIC (M.tb strain H37Rv [4]; read-out: MIC (LORA)) | F(%) oral bioavailability [5]
COc1nc2ccc(Br)cc2cc1[C@@H](c1cncc(C)c1)[C@@](O)(CCN(C)C)c1cccc(F)c1 [Compound 42] | 0.53 µg/mL (≈ 0.984 µM) | 12 min | 56 µL/min/mg/protein | 4.6 µM | 24% | 0.97 µg/mL (≈ 1.8 µM) |  |  |  |  |  | 
CCSc1ccc([C@H](c2cc3cc(Br)ccc3nc2OC)[C@@](O)(CCN(C)C)c2cccc(F)c2)cn1 [Compound 39] | 0.14 µg/mL (≈ 0.239 µM) | 64 min | 11 µL/min/mg/protein | 10 µM | 30% | 0.15 µg/mL (≈ 0.257 µM) |  |  |  |  |  | 
COc1nc2ccc(Br)cc2cc1[C@@H](c1ccc(N(C)C)nc1)[C@@](O)(CCN(C)C)c1cccc(F)c1 [Compound 36] | 0.08 µg/mL (≈ 0.141 µM) | 18 min | 38 µL/min/mg/protein | > 10 µM | 45% | 0.15 µg/mL (≈ 0.264 µM) |  |  |  |  |  | 
COc1nc2ccc(Br)cc2cc1[C@@H](c1cc(C)c(C)s1)[C@@](O)(CCN(C)C)c1cccc(F)c1 [Compound 9] | 0.06 µg/mL (≈ 0.108 µM) | 60 min | 12 µL/min/mg/protein | 10 µM | 48% | 0.11 µg/mL (≈ 0.197 µM) | comparable activity to 1 | 0.05 to 0.58 µg/mL |  |  |  | 
COc1nc2ccc(Br)cc2cc1[C@@H](c1ccnc(OC)c1OC)[C@@](O)(CCN(C)C)c1cccc(C#N)c1 [Compound 49] | 0.13 µg/mL (≈ 0.22 µM) | 37 min | 19 µL/min/mg/protein | > 10 µM | 68% | 0.21 µg/mL (≈ 0.355 µM) |  |  | comparable to that of 1 |  |  | 
COc1nc2ccc(Br)cc2cc1[C@@H](c1ccnc(OC)c1OC)[C@@](O)(CCN(C)C)c1cccc(C)c1 [Compound 45] | 0.02 µg/mL (≈ 0.0345 µM) | 52 min | 13 µL/min/mg/protein | > 10 µM | 40% | 0.04 µg/mL (≈ 0.0689 µM) |  |  |  |  |  | 
COc1nc2ccc(Br)cc2cc1[C@@H](c1ccccc1)[C@@](O)(CCN(C)C)c1cccc2ccccc12 [Compound 1, bedaquiline, reference compound] | 0.05 µg/mL (≈ 0.09 µM) |  |  |  |  | 0.08 µg/mL (≈ 0.144 µM) |  |  |  | 0.05 µM | 0.08 µM (≈ 0.0444 µg/mL) | 70%
COc1cc([C@H](c2cc3cc(Br)ccc3nc2OC)[C@@](O)(CCN(C)C)c2cccc(F)c2)cnc1OC [Compound 43] | 0.47 µg/mL (≈ 0.804 µM) | 19 min | 36 µL/min/mg/protein | > 10 µM | 36% | 0.54 µg/mL (≈ 0.924 µM) |  |  |  |  |  | 
